Data: patent US20120264810A1, “COMPOSITIONS AND METHODS FOR ENHANCING CELLULAR UPTAKE AND INTRACELLULAR DELIVERY OF LIPID PARTICLES” (The University of British Columbia, priority 2009, published 2012)
Where a name gives a salt, the structure may show the parent alone.

Key:
[1] = system: GAPDH protein expression in Raw264.7 cells; assay: GAPDH siRNA-LN knockdown by western blotting in Raw264.7 cells; assay type: cell-based, mouse
Method: (§1) FIG. 5: Raw264.7 cells were treated for 24 hours with siRNACy3 encapsulated in DLinDMA LNs in the presence or absence of 5% CQ-lipid. A lipid label, SPDiO, was incorporated into the LN to monitor uptake. LN uptake was assessed by (A) SPDiO fluorescence and distribution of siRNA was assessed by (B) Cy3 fluorescence using the Cellomics ArrayScan VTI. (C) Raw264.7 cells were incubated with the same LN formulations as in (B) for 24 hours at 10 μg/mL siRNACy3. siRNACy3 distribution was examined by confocal microscopy. (D) GAPDH siRNA was formulated into LN particles comprising of 40% DLinDMA with 0% CQ-lipid or 40% DLinDMA with 5% CQ-lipid. Raw264.7 cells were treated with 5, 10 and 20 μg/mL of siRNA for 48 and 72 hours. GAPDH protein expression was assessed by western blotting against anti-GAPDH and anti-actin. (E) LNCaP cells were treated accordingly as in (D).
(§2) Perhaps most importantly, we wanted to determine whether the enhanced cytosolic distribution of siRNACy3 observed with the CQ-lipid correlated to enhanced gene knockdown. Glyceraldehyde 3-phosphate dehydrogenase (GAPDH) is an ubiquitously expressed cytosolic protein and therefore knockdown efficiency of encapsulated siRNA can be tested in different cell lines (Barber et al., 2005). Raw264.7 cells were treated with LN of varying concentration of GAPDH siRNA for 24, 48 and 72 hours. Total protein was isolated and analyzed for GAPDH levels by immunoblotting. […] The function of GAPDH siRNA was specific since actin expression was unaltered (FIG. 5D). To confirm the function of the CQ-lipid in the LN-siRNA-mediated gene knockdown, GAPDH silencing was also assessed in LNCaP cells (FIG. 5E).

[2] = system: GAPDH protein expression in LNCaP cells; assay: GAPDH siRNA-LN knockdown in LNCaP cells; assay type: cell-based, human
Method: as §1, §2

Raw264.7 cells [3] = assay: Chloroquine / CQ-lipid LN formulations: LN uptake (SPDiO) and siRNA distribution (Cellomics, confocal); assay type: cell-based, mouse
Method: All lipid stocks (DSPC, PEG-s-DMG, Cholesterol, SP-DiOC18, chloroquine lipid and DLinDMA) were dissolved and maintained in 100% ethanol. Lipids were mixed together at a molar % ratio of 40:10:39.8:10:0.2 DLinDMA:PEG-s-DMG:cholesterol:DSPC:SP-DiO18 or 40:10:35.8:9:0.2 with 5% CQ-lipid or 35:10:39.8:0.2 with 5% CQ-lipid. Lipid mixture was added drop-wise to the formulation buffer (50 mM citrate, pH 4.0) to form multi lamellar vesicles (MLV). Large unilamellar vesicles (LUVs) were formed upon extrusion of MLVs through two stacked 80 nm Nuclepore polycarbonate filters using an extruder from Northern Lipids (Vancouver, BC, Canada) at ˜300 psi. In order to encapsulate siRNA, siRNA was added drop-wise to preformed vesicles and incubated at 35° C. for 30 minutes with constant mixing. Removal of ethanol and neutralization of formulation buffer were performed by dialysis in PBS for 16 hours. Distribution of size was determined by dynamic light scattering using a NICOMP 370 particle sizer (Nicomp Particle sizing Inc., Santa Barbara, Calif.). siRNA encapsulation efficiency was determined by removal of free siRNA using VivaPureD MiniH columns (Sartorius Stedim Biotech) from samples collected before and after dialysis. The encapsuted siRNA from eluants were then extracted and quantified at 260 nm. siRNA to lipid ratio was determined by measurement of cholesterol content in vesicles by using the Cholesterol E enzymatic assay from Wako Chemicals USA (Richmond, Va.).
Raw264.7 cells grown on glass coverslips were treated with 10 μg/mL Cy5-siRNA-LN/SPDiO or siRNACy3-LN/SPDiO constituted of +/−5% CQ-lipid in the presence of 35 or 40% DLinDMA. The overall uptake of LNs was monitored with SPDiO and the distribution of siRNA was monitored using either Cy5- or Cy3-labelled siRNA. Cells were fixed with 3% paraformaldehyde in PBS in the presence of Hoescht for nuclear staining for 15 minutes. Glass coverslips were mounted onto slides and analyzed by confocal microscopy (Olympus FV1000). Fluorochromes were excited at 488 nm (DiO), 594 nm (Alexa-594), 550 nm (Cy3) and at 633 nm (Cy5) and images were collected sequentially with 60× oil immersion objective lens.
Raw264.7 cells were treated with LNs consisting of 40% DLinDMA in the absence or presence of 10 or 30 μM chloroquine or formulation consisting of 35% DLinDMA with 5% CQ-lipid (˜14.7 μM chloroquine). Total lipid uptake was estimated by cellular SPDiO fluorescence. When cells were treated for 16 hours, the uptake of SPDiO was dependent on the concentration of chloroquine as well as concentration of LNs (FIG. 4A). When Raw264.7 cells were treated only with DLinDMA LNs, the intensity of SPDiO increased in respect to concentration. […] The Cy5-siRNA distribution at 16 hours was relatively more “punctate” than that at 24 hours (FIGS. 4B and C).

Raw264.7 cells [4] = assay: Drug screen and titration: siRNACy3-LN uptake and punctate distribution (Cellomics ArrayScan); assay type: cell-based, mouse; conditions: for Normalized Punctate Distribution / Normalized siRNA Uptake: 10 μg/mL siRNACy3 in DLinDMA LN, ~10 μM drug, 24 h; for Normalized Punctate Distribution: normalized to absence of drug; for Normalized siRNA Uptake: total Cy3 intensity normalized to absence of drug; for increase in siRNACy3 accumulation: drug at 30 μM, 10 μg/mL siRNACy3 in DLinDMA LNs, normalized to no drug; for punctate / cytosolic distribution of siRNACy3 in titration study: drug 0-30 μM, 10 μg/mL siRNACy3-LN
Method: (§3) Cells were fixed with 3% paraformaldehyde in PBS in the presence of Hoescht for 15 minutes. Cells were rinsed and stored in PBS supplemented with calcium chloride and magnesium sulfate. Plates were scanned and analyzed with the Cellomics ArrayScan VTI.
as §3

Na+/K+-ATPase = conditions: Paula et al., 2005; cited from earlier work
HeLa cells = assay: LNP uptake in HeLa cells (SPDiO fluorescence, Cellomics / confocal); assay type: cell-based, human; conditions: for LNP uptake with cardiac glycosides: 0.05, 0.15 and 1.5 μM, 24 h
Method: All cell lines were seeded at 5000 to 20,000 cells/well of 96-well ViewPlate (PerkinElmer, Shelton, Conn., USA) in 100 μl of medium and were allowed to grow overnight. Fresh medium containing 5 or 10 μg/ml of siRNA encapsulated in LNP was added the next day. Small molecules were either added manually or pinned from 1000-fold stocks in DMSO using a pinning robot equipped with 0.4 mm pins (BioRobotics, Cambridge, UK). Cells were incubated for 24 h. Cells were then washed once in PBSCM (1×PBS containing […] CaCl2), fixed in 3% paraformaldehyde containing Hoescht's stain for 15 min, washed once in PBSCM and stored in 100 μl of PBSCM.
Plates were imaged using a Cellomics Arrayscan VTI HCS Reader (Thermo Scientific, Pittsburgh, Pa., USA). Images were acquired using a 20× PlanFluor objective and a XF93 filter set. Object identification and image analysis were performed using the Cellomics Compartmental Analysis algorithm. Cellular SPDiO and siRNA-Cy3 fluorescence intensities were measured for a minimum of 400 cells and the average pixel intensity was examined. For confocal microscopy, cells grown on glass coverslips were washed once in 1×PBS, fixed in 3% paraformaldehyde containing Hoechst's stain for 15 min, washed again and mounted on slides. Images were captured on an Olympus FV1000 (Olympus, Center Valley, Pa., USA) laser scanning microscope and cellular SPDiO fluorescence intensity was analyzed using ImageJ (NIH, http://rsb.info.nih.gov/ij/).

[5] = 30 μM free chloroquine, or 35% DLinDMA LNs with 5% CQ-lipid, 16 hours

CCCCC/C=C\C/C=C\CCCCCCCCOCC(CNCCCCNc1ccnc2cc(Cl)ccc12)OCCCCCCCC/C=C\C/C=C\CCCCC (stereo not shown) [CQ-lipid]
GAPDH protein expression ([1]; 20 μg/mL GAPDH siRNA in LN containing 5% CQ-lipid, 48 hours): decreased GAPDH protein expression
gene knockdown occurred earlier than with LN without CQ-lipid ([1]; 20 μg/ml siRNA in LN containing the CQ-lipid): 24 h
GAPDH knockdown ([1]; 24 hours): no knockdown
knockdown of GAPDH ([1]; 72 hours): more pronounced
knockdown of GAPDH ([2]; LN containing 5% CQ-lipid, 72 hours): More pronounced knockdown effect
knockdown of GAPDH ([2]; all concentrations of LN containing 5% CQ-lipid, 48 hours): Enhanced knockdown of GAPDH
Cy5-siRNA punctate levels (Raw264.7 cells [3]; [5]): significant reduction
intracellular DiO accumulation (LN uptake) (Raw264.7 cells [3]; 5% CQ-lipid:35% DLinDMA LN, highest dose, versus 0% CQ-lipid:40% DLinDMA): substantially reduced intracellular DiO accumulation
siRNACy3 punctate signal (Raw264.7 cells [3]; 40% DLinDMA LNs with 5% CQ-lipid, 24 hours): lowered punctate signal
uptake of LN particles (SPDiO fluorescence) (Raw264.7 cells [3]; 40% DLinDMA LNs with versus without 5% CQ-lipid, 24 hours): comparable intracellular SPDiO fluorescence

Cc1cc(NC(=O)C2=C(O)c3ccccc3S(=O)(=O)N2C)no1 [Isoxicam]
Normalized Punctate Distribution (Raw264.7 cells [4]): 1.53
Normalized siRNA Uptake (Raw264.7 cells [4]): 1.42
increase in siRNACy3 accumulation (Raw264.7 cells [4]): ~3 fold

C[C@@H]1O[C@@H](O[C@@H]2C=C3CCC4C(CC[C@]5(C)[C@@H](c6ccc(=O)oc6)CC[C@]45O)[C@@]3(C)CC2)[C@H](O)[C@H](O)[C@H]1O (stereo partly shown) [Proscillaridin A]
relative binding affinity among the 9 cardiac glycosides (Na+/K+-ATPase): strongest binder
LNP uptake with cardiac glycosides (HeLa cells): required the least amount to cause an increased LNP uptake

CC(=O)OCC(=O)[C@@]1(O)CC[C@H]2[C@@H]3CCC4=CC(=O)C=C[C@]4(C)[C@@]3(F)[C@@H](O)C[C@@]21C [Isoflupredone acetate]
Normalized Punctate Distribution (Raw264.7 cells [4]): 0.07
Normalized siRNA Uptake (Raw264.7 cells [4]): 0.50

Cn1c(=O)c2c(ncn2CC(O)CO)n(C)c1=O (stereo not shown) [Diprophylline]
Normalized Punctate Distribution (Raw264.7 cells [4]): 1.55
Normalized siRNA Uptake (Raw264.7 cells [4]): 1.38
increase in siRNACy3 accumulation (Raw264.7 cells [4]): Approximately 2 fold

COc1cc(C(=O)NCc2ccc(OCCN(C)C)cc2)cc(OC)c1OC [Trimethobenzamide HCl, Trimethobenzamide hydrochloride]
Normalized Punctate Distribution (Raw264.7 cells [4]): 0.31
Normalized siRNA Uptake (Raw264.7 cells [4]): 0.70
punctate / cytosolic distribution of siRNACy3 in titration study (Raw264.7 cells [4]): increased punctate distribution of siRNACy3 with increasing drug concentration

N[C@@H](Cc1ccc(O)c(O)c1)C(=O)O [Levodopa]
Normalized Punctate Distribution (Raw264.7 cells [4]): 1.43
Normalized siRNA Uptake (Raw264.7 cells [4]): 1.28

C[N+]1(C)CCC(=C(c2ccccc2)c2ccccc2)CC1 [Diphemanil methylsulfate]
Normalized Punctate Distribution (Raw264.7 cells [4]): 0.34
Normalized siRNA Uptake (Raw264.7 cells [4]): 0.70
punctate / cytosolic distribution of siRNACy3 in titration study (Raw264.7 cells [4]): only showed enhanced cytosolic distribution of siRNACy3 at 30 μM

Nc1nc(O)c2[nH]nnc2n1 [Azaguanine-8]
Normalized Punctate Distribution (Raw264.7 cells [4]): 0.07
Normalized siRNA Uptake (Raw264.7 cells [4]): 0.54

CCN(CC)CCCC(C)Nc1ccnc2cc(Cl)ccc12 (stereo not shown) [Chloroquine]
siRNA showing punctate distribution (Raw264.7 cells [3]; 10 μM chloroquine, 24 hours (without chloroquine maximum 25-30%)): ~10%
uptake of LNs (SPDiO fluorescence) (Raw264.7 cells [3]; 10 μM free chloroquine, 40% DLinDMA LNs, 16 hours): no significant difference
Cy5-siRNA punctate levels (Raw264.7 cells [3]; 10 μM free chloroquine, 16 hours): largely indifferent
Cy5-siRNA punctate levels (Raw264.7 cells [3]; [5]): significant reduction
Normalized Punctate Distribution (Raw264.7 cells [4]): 0.10
Normalized siRNA Uptake (Raw264.7 cells [4]): 0.34
punctate / cytosolic distribution of siRNACy3 in titration study (Raw264.7 cells [4]): significant loss of punctate distribution of siRNACy3 at 10 μM

c1ccc2c(CC3=NCCN3)cccc2c1 [Naphazoline HCl, naphazoline hydrochloride]
Normalized Punctate Distribution (Raw264.7 cells [4]): 1.49
Normalized siRNA Uptake (Raw264.7 cells [4]): 1.32

CC(=O)c1ccc(S(=O)(=O)NC(=O)NC2CCCCC2)cc1 [Acetohexamide]
Normalized Punctate Distribution (Raw264.7 cells [4]): 1.48
Normalized siRNA Uptake (Raw264.7 cells [4]): 1.32

CC(COc1ccccc1)NC(C)C(O)c1ccc(O)cc1 (stereo not shown) [Isoxsuprine HCl, isoxsuprine hydrochloride]
Normalized Punctate Distribution (Raw264.7 cells [4]): 0.33
Normalized siRNA Uptake (Raw264.7 cells [4]): 0.51

C[C@H]1O[C@@H](O[C@H]2CC[C@]3(C=O)[C@H]4CC[C@]5(C)[C@@H](C6=CC(=O)OC6)CC[C@]5(O)[C@@H]4CC[C@]3(O)C2)C[C@H](O)[C@@H]1O [Helveticoside]
relative binding affinity among the 9 cardiac glycosides (Na+/K+-ATPase): weakest binder
LNP uptake with cardiac glycosides (HeLa cells): enhanced LNP uptake at a higher concentration
presence of LNs in cells by confocal microscopy (HeLa cells; treated for 24 hrs): substantial amount of LNs
